From patent US20260070922A1, “PYRAZOLE AND IMIDAZOLE DERIVATIVES AS DUAL OREXIN AND KAPPA-OPIOID RECEPTORS MODULATORS COMPOSITION, METHODS FOR TREATING NEUROLOGICAL AND PSYCHIATRIC DISORDERS” (HAGER BIOSCIENCES, LLC, priority 2022, published 2026) come the findings set out here.

Assay [1] deals with T1, human orexin-2 receptor (OX2R) (Homo sapiens, UniProt O43614).
T1 construct: expressed in transfected cells; host or cells: CHO cells (G418 selection)
T1 sequence (O43614 1-444): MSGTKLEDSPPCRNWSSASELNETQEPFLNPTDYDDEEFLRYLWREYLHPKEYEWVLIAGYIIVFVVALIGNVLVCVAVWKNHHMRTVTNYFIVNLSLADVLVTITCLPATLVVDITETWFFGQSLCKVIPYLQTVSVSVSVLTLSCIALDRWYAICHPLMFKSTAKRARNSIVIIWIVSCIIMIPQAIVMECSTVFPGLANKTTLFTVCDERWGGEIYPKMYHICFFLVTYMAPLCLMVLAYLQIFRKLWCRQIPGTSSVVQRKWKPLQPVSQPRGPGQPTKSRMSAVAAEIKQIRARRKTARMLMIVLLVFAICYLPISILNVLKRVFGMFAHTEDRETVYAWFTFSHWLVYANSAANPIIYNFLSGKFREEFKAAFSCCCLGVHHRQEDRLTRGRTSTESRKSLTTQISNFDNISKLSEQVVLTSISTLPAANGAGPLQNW
The experiment in a line: In vitro orexin antagonism assay: intracellular calcium measurement (FLIPR), orexin-A 3 nM as agonist. The class given is cell-based. The following applies: for inhibition at 1 µM: read-out: OX2R, % Inh. @ 1 uM; for IC50: first value of IC50/Kb cell; for Kb: second value of IC50/Kb cell. An outline of the steps: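 CHO cells stably expressing human OX1R or OX2R, loaded with fluo-4 AM (3 μM, 5 mM probenecid) for 50 min at 37 °C, then 30 min at RT. Antagonist preincubated 120 min before 3 nM orexin-A; FLIPR fluorescence peak height vs vehicle gives IC50, possibly normalized to on-plate reference; geometric mean of repeats.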
For orientation: A change in cytosolic calcium serves as a functional read-out for many receptors and channels.

Assay [2] deals with T2, human k-opioid receptor (kOR) (Homo sapiens, UniProt P41145).
T2 construct: expressed in transfected cells; host or cells: RBL cells (membrane homogenates)
The experiment in a line: Human k-opioid (KOP) receptor (agonist radioligand [3H]U-69593) binding assay, transfected RBL cell membranes. The following applies: for IC50: first value of IC50/Ki cell; for inhibition at 1 µM: read-out: KOR % Inh. @ 1 uM. An outline of the steps:
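Membranes from transfected RBL cells (~80 μg protein) incubated 60 min at 22° C with 0.5 nM [3H]U-69593 in 50 mM Tris-HCl pH 7.4, 10 mM MgCl2, 1 mM EDTA. Nonspecific binding defined with 10 μM naloxone; filtration and scintillation counting. Values are percent inhibition of specific radioligand binding.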

Assay [3] deals with T2, human k-opioid receptor (kOR). The assay is described as above. As to conditions: second value of IC50/Ki cell.
For assay [4], the target named is T3, Orexin type 1 (OX1R) receptor (Homo sapiens, UniProt O43613).
T3 construct: expressed in transfected cells; host or cells: CHO cells (G418 selection)
T3 sequence (O43613 1-425): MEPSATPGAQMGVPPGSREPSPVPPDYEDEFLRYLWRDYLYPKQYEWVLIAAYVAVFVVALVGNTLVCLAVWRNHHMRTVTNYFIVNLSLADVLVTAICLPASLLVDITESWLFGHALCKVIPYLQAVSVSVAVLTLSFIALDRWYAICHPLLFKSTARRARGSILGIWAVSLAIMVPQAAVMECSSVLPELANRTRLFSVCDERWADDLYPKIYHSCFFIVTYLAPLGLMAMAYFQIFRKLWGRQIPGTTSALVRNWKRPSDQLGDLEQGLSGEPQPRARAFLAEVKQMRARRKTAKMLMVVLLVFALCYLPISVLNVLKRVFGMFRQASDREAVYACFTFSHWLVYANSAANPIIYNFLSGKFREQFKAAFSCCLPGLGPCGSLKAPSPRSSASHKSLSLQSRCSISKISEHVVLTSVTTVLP
The experiment in a line: In vitro orexin antagonism assay: intracellular calcium measurement (FLIPR), orexin-A 3 nM as agonist. It counts as cell-based. The following applies: for IC50: first value of IC50/Kb cell; for inhibition at 1 µM: read-out: OX1R, % Inh. @ 1 uM; for Kb: second value of IC50/Kb cell. An outline of the steps:
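CHO cells expressing the human orexin receptor were loaded with 3 μM fluo-4 AM plus 5 mM probenecid, then exposed to antagonist for 120 min before 3 nM orexin-A (final) was added on a FLIPR.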

T2 sequence (P41145 whole entry): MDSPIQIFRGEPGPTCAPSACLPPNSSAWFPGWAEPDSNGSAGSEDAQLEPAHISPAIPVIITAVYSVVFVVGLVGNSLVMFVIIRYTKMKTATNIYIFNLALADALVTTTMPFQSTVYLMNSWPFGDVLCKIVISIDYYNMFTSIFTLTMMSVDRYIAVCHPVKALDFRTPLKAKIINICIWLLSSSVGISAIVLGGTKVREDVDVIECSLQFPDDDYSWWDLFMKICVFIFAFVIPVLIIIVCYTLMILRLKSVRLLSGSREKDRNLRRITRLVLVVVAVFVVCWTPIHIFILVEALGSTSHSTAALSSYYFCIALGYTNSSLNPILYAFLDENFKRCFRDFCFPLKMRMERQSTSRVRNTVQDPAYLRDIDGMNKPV

A word on the IC50: it is the concentration at which inhibition is half-maximal. One may read the Ki as the dissociation constant of the complex between target and ligand, obtained from inhibition or displacement. The term Kb denotes the equilibrium dissociation constant of an antagonist, usually derived from a functional assay. In the case of `C[C@@H]1CCCN(C(=O)c2c(-c3ccccc3)nc3ncccn23)[C@@H]1CNc1ccc(C(F)(F)F)cn1` [Example 34], the inhibition at 1 µM is 1.8% in assay [1], 57% in assay [2] and 79.8% in assay [4]. Further, the IC50 in assay [2] is 730 nM; in assay [4] it was 53 nM. The Ki in assay [3] stood at 400 nM. Besides, the antagonist dissociation constant (Kb) in assay [4] worked out at 11 nM.

`C[C@@H]1CCCN(C(=O)c2c(-c3ccc(F)cc3)nn3ccccc23)[C@@H]1CNc1ccc(C(F)(F)F)cn1` [Example 40]: the inhibition at 1 µM in assay [1] was determined as 7.1%. In addition, in assay [2], the IC50 worked out at 740 nM and the inhibition at 1 µM worked out at 59%. Moreover, the Ki in assay [3] came out at 400 nM. In assay [4], the half-maximal inhibitory concentration (IC50) was determined as 29 nM, the inhibition at 1 µM was found to be 98.4% and the antagonist dissociation constant (Kb) is 6 nM.

For `O=C(c1c(-c2ccc(F)cc2)nn2ccccc12)N1CCC[C@H]1Cn1ccc(-c2ccccc2)n1` [Example 44], in assay [1], the IC50 is 220 nM, the inhibition at 1 µM was 72.3% and the Kb is 31 nM. Also, in assay [2], the IC50 worked out at 690 nM and the inhibition at 1 µM is 55%. This molecule gave a Ki in assay [3] of 370 nM. Further, in assay [4], the 50% inhibitory concentration (IC50) was found to be 5 nM, the inhibition at 1 µM was 98.8% and the Kb is 1 nM.

Consider `O=C(c1c(-c2ccccc2)nc2ccc(F)cn12)N1CCC[C@H]1Cn1ccc(-c2ccc(F)cc2)n1` [Example 49], for which the IC50 in assay [1] worked out at 52 nM; in assay [2] it was 47 nM; in assay [4], 9 nM. The inhibition at 1 µM in assay [1] worked out at 79.3%; in assay [2] it was 92%; in assay [4] it was 102%. In addition, the figures for the Kb in assay [1] and in assay [4] were 7 nM and 2 nM, respectively. In addition, in assay [3], affinity was put at a Ki of 25 nM.

Take `O=C(c1c(-c2ccccc2)nc2cc(F)ccn12)N1CCC[C@H]1Cn1ccc(-c2ccc(F)cc2)n1` [Example 50]: the concentration for half-maximal inhibition (IC50) was determined as 18 nM in assay [1] and 590 nM in assay [2]. The inhibition at 1 µM in assay [1] was found to be 89%; in assay [2], 59%; in assay [4] it was 99%. Besides, the antagonist dissociation constant (Kb) in assay [1] was 3 nM. In assay [3], this molecule gave an inhibitory constant (Ki) of 320 nM.

As for `O=C(c1c(-c2ccccc2)nc2cc(C(F)(F)F)ccn12)N1CCC[C@H]1Cn1ccc(-c2ccc(F)cc2)n1` [Example 53], in assay [1], the IC50 stood at 33 nM, the inhibition at 1 µM was 95.5% and the antagonist equilibrium constant (Kb) was 5 nM. In addition, in assay [2], the IC50 was found to be 56 nM and the inhibition at 1 µM came to 93%. This molecule also came in with an inhibition constant Ki in assay [3] of 31 nM. Also, in assay [4], the IC50 turned out to be 21 nM, the inhibition at 1 µM amounted to 97.6% and the antagonist dissociation constant (Kb) came out at 4 nM.

As to `O=C(c1c(-c2ccccc2F)nn2ccccc12)N1CCC[C@H]1Cn1cc(-c2ccccc2)cn1` [Example 69], the IC50 in assay [1] worked out at 23 nM; in assay [2], 190 nM; in assay [4], 9 nM. The inhibition at 1 µM is 86% in assay [1], 76% in assay [2] and 100% in assay [4]. The antagonist dissociation constant (Kb) in assay [1] amounted to 4 nM; in assay [4] it was 2 nM. In addition, the affinity in assay [3], expressed as Ki, was 100 nM.

On to `O=C(c1c(-c2ccccc2)nc2ccc(F)cn12)N1CCC[C@H]1Cn1cc(-c2ccccc2)cn1` [Example 75], for which the IC50 in assay [1] was found to be 160 nM; in assay [2], 140 nM; in assay [4], 160 nM. Besides, the inhibition at 1 µM in assay [1] was 76%; in assay [2], 86%; in assay [4], 93%. The antagonist equilibrium constant (Kb) in assay [1] stood at 28 nM; in assay [4], 33 nM. Further, in assay [3], the affinity corresponds to a Ki of 77 nM.

For the molecule `O=C(c1c(-c2ccccc2)nc2cc(C(F)(F)F)ccn12)N1CCC[C@H]1Cn1cc(-c2ccccc2)cn1` [Example 80], in assay [1], the half-maximal inhibitory concentration (IC50) is 79 nM, the inhibition at 1 µM was found to be 78% and the Kb amounted to 14 nM. In addition, in assay [2], the IC50 was found to be 46 nM and the inhibition at 1 µM stood at 95%. The same molecule came in with an inhibition constant (Ki) in assay [3] of 25 nM. Further, in assay [4], the IC50 is 190 nM, the inhibition at 1 µM came out at 87% and the Kb is 40 nM.

Turning to `O=C(c1c(-c2ccccc2)nc2ccc(F)cn12)N1CCC[C@H]1Cn1ccc(-c2ccc(F)cn2)n1` [Example 92], in assay [1], the half-maximal inhibitory concentration (IC50) worked out at 930 nM, the inhibition at 1 µM is 61% and the Kb came out at 160 nM. For the same molecule, in assay [2], the IC50 was 170 nM and the inhibition at 1 µM was found to be 79%. The molecule also showed a Ki in assay [3] of 94 nM. In assay [4], the 50% inhibitory concentration (IC50) worked out at 250 nM, the inhibition at 1 µM amounted to 75% and the antagonist dissociation constant (Kb) amounted to 52 nM.

With `O=C(c1c(-c2ccccc2)nc2cc(C(F)(F)F)ccn12)N1CCC[C@H]1Cn1ccc(-c2ccc(F)cn2)n1` [Example 94], in assay [1], the IC50 stood at 36 nM, the inhibition at 1 µM is 76% and the Kb worked out at 6 nM. Moreover, in assay [2], the IC50 was 210 nM and the inhibition at 1 µM was found to be 74%. The Ki in assay [3] came out at 120 nM. Further, in assay [4], the 50% inhibitory concentration (IC50) was 37 nM, the inhibition at 1 µM was determined as 88% and the antagonist equilibrium constant (Kb) amounted to 8 nM.

With `O=C(c1c(-c2ccccc2F)nn2ccccc12)N1[C@H](Cn2ccc(-c3ccc(F)cc3)n2)C[C@@H]2C[C@@H]21` [Example 95], the inhibition at 1 µM in assay [1] was found to be 50%. In assay [2], the half-maximal inhibitory concentration (IC50) stood at 180 nM and the inhibition at 1 µM was 87%. In assay [3], this molecule yielded a Ki of 99 nM. Further, in assay [4], the IC50 amounted to 95 nM, the inhibition at 1 µM is 91% and the antagonist equilibrium constant (Kb) was found to be 20 nM.

Take `O=C(c1c(-c2ccccc2)nc2ccc(F)cn12)N1[C@H](Cn2ccc(-c3ccc(F)cc3)n2)C[C@@H]2C[C@@H]21` [Example 97]: in assay [1], the inhibition at 1 µM worked out at 37%. Besides, in assay [2], the IC50 was 80 nM and the inhibition at 1 µM is 91%. For the same molecule, in assay [3], the inhibition constant Ki came out at 44 nM. Besides, in assay [4], the IC50 was 160 nM, the inhibition at 1 µM amounted to 70% and the Kb stood at 33 nM.

As to `O=C(c1c(-c2ccccc2F)nn2ccccc12)N1[C@H](Cn2ccc(-c3ccc(F)cn3)n2)C[C@@H]2C[C@@H]21` [Example 107], in assay [1], the IC50 was found to be 520 nM, the inhibition at 1 µM came out at 55% and the antagonist equilibrium constant (Kb) amounted to 90 nM. In assay [2], the IC50 amounted to 910 nM and the inhibition at 1 µM is 61%. The same molecule gave an inhibition constant Ki in assay [3] of 500 nM. In addition, in assay [4], the half-inhibitory concentration (IC50) turned out to be 83 nM, the inhibition at 1 µM was 92% and the Kb was 18 nM.

Consider `O=C(c1nn2ccccc2c1-c1ccccc1)N1CCC[C@H]1Cn1cc(-c2ccc(F)cn2)cn1` [Example 112], for which the figures for the half-inhibitory concentration (IC50) in assay [1], in assay [2] and in assay [4] were 15 nM, 720 nM and 4 nM, respectively. The inhibition at 1 µM was 86% in assay [1], 70% in assay [2] and 100% in assay [4]. The figures for the antagonist equilibrium constant (Kb) in assay [1] and in assay [4] were 3 nM and 0.8 nM, respectively. The molecule also yielded an inhibitory constant (Ki) in assay [3] of 390 nM.

On to `[2H]C1([2H])CC[C@@]([2H])(Cn2ccc(-c3ccc(F)cc3)n2)N1C(=O)c1c(-c2ccccc2)nc2ccc(F)cn12` [Example 177], for which, in assay [1], the half-maximal inhibitory concentration (IC50) came to 371 nM, the inhibition at 1 µM amounted to 85% and the antagonist dissociation constant (Kb) was 64 nM. In addition, in assay [2], the IC50 turned out to be 90 nM and the inhibition at 1 µM came out at 91%. In assay [3], this molecule came in with a Ki of 49 nM. In addition, in assay [4], the IC50 worked out at 20 nM, the inhibition at 1 µM came to 95% and the antagonist equilibrium constant (Kb) turned out to be 4 nM.
